The assay has as its system BDF1 mice, P388 leukemia ip, median survival T/C. As to the kind of experiment: NCI In Vivo Anticancer Drug Screen. Data for tumor model P388 Leukemia (intraperitoneal) in B6D2F1 (BDF1) mice. The note with it: endpoint: median survival time, higher = longer survival. A digest of the protocol:
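Survival ratio, drug arm over vehicle arm, in mice with a transplanted tumour.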

Where [1] appears, read: dose: 100.0 mg/kg/injection, schedule: Q01DX009 (ip), vehicle: Klucel (hydroxypropylcellulose) (HPC).
[2] abbreviates: dose: 100.0 mg/kg/injection, schedule: Q04DX003 (ip), vehicle: Klucel (hydroxypropylcellulose) (HPC).
[3] abbreviates: dose: 200.0 mg/kg/injection, schedule: Q01DX009 (ip), vehicle: Klucel (hydroxypropylcellulose) (HPC).
Where [4] appears, read: dose: 200.0 mg/kg/injection, schedule: Q04DX003 (ip), vehicle: Klucel (hydroxypropylcellulose) (HPC).
Setting [5] is: dose: 400.0 mg/kg/injection, schedule: Q01DX009 (ip), vehicle: Klucel (hydroxypropylcellulose) (HPC).
Setting [6] is: dose: 400.0 mg/kg/injection, schedule: Q04DX003 (ip), vehicle: Klucel (hydroxypropylcellulose) (HPC).
Setting [7] is: dose: 50.0 mg/kg/injection, schedule: Q01DX009 (ip), vehicle: saline with Tween-80.
Where [8] appears, read: dose: 100.0 mg/kg/injection, schedule: Q01DX009 (ip), vehicle: saline with Tween-80.
The mark [9] stands for this setting: dose: 200.0 mg/kg/injection, schedule: Q01DX009 (ip), vehicle: saline with Tween-80.
Where [10] appears, read: dose: 12.5 mg/kg/injection, schedule: Q01DX009 (ip), vehicle: Klucel (hydroxypropylcellulose) (HPC).
The mark [11] stands for this setting: dose: 25.0 mg/kg/injection, schedule: Q01DX009 (ip), vehicle: Klucel (hydroxypropylcellulose) (HPC).
The mark [12] stands for this setting: dose: 50.0 mg/kg/injection, schedule: Q01DX009 (ip), vehicle: Klucel (hydroxypropylcellulose) (HPC).
The mark [13] stands for this setting: dose: 100.0 mg/kg/injection, schedule: Q04DX003 (ip), vehicle: saline with Tween-80.
[14] abbreviates: dose: 200.0 mg/kg/injection, schedule: Q04DX003 (ip), vehicle: saline with Tween-80.
[15] abbreviates: dose: 400.0 mg/kg/injection, schedule: Q04DX003 (ip), vehicle: saline with Tween-80.
Where [16] appears, read: dose: 50.0 mg/kg/injection, schedule: Q04DX003 (ip), vehicle: saline with Tween-80.
Setting [17] is: dose: 12.5 mg/kg/injection, schedule: Q04DX003 (ip), vehicle: saline.
The mark [18] stands for this setting: dose: 25.0 mg/kg/injection, schedule: Q04DX003 (ip), vehicle: saline.
[19] abbreviates: dose: 50.0 mg/kg/injection, schedule: Q04DX003 (ip), vehicle: saline.
Where [20] appears, read: dose: 100.0 mg/kg/injection, schedule: Q04DX003 (ip), vehicle: saline.
Setting [21] is: dose: 50.0 mg/kg/injection, schedule: Q01DX009 (ip), vehicle: saline.

SMILES strings stand for the structures. Several values for one entry are separate records, joined by “and”; a condition that tells them apart may be missing. Equal entries are not always repeated. Inconclusive results and toxic doses are left out.

Regarding `C[C@]12CCC(=O)C=C1CC[C@H]1[C@@H]3CCC(=O)O[C@@]3(C)CC(=O)[C@@]12F`, the T/C by setting is: under setting [1], 111 % of control; under setting [2], 90 % of control; under setting [3], 96 % of control; under setting [4], 109 % of control; under setting [5], 100 % of control; under setting [6], 86 % of control.
Regarding `Cn1c(-c2ccccc2)nc2ccccc2c1=O`, the T/C under setting [7] was 90 % of control, the T/C under setting [8] is 97 % of control and the T/C under setting [9] is 101 % of control.
For the compound `O=S(=O)(Cl)CCCBr`, the T/C was 100 % of control (dose: 50.0 mg/kg/injection, schedule: Q01DX001 (ip), vehicle: saline sonified); 100 % of control (dose: 100.0 mg/kg/injection, schedule: Q01DX001 (ip), vehicle: saline sonified); 100 % of control (dose: 200.0 mg/kg/injection, schedule: Q01DX001 (ip), vehicle: saline sonified).
Regarding `COc1cc(C=Nc2cccc(Br)c2)ccc1N(CCCl)CCCl`, the T/C runs as follows: (dose: 5.5 mg/kg/injection, schedule: Q04DX003 (ip), vehicle: saline with Tween-80) 159 % of control; (dose: 8.3 mg/kg/injection, schedule: Q04DX003 (ip), vehicle: saline with Tween-80) 177 % of control; (dose: 12.5 mg/kg/injection, schedule: Q04DX003 (ip), vehicle: saline with Tween-80) 190 % of control; (dose: 25.0 mg/kg/injection, schedule: Q04DX003 (ip), vehicle: other) 250 % of control; (dose: 100.0 mg/kg/injection, schedule: Q01DX009 (ip), vehicle: saline sonified) 90 % of control.
For the compound `O=C(O)/C=C\C(=O)Nc1ccccc1`, the T/C runs as follows: (dose: 6.25 mg/kg/injection, schedule: Q01DX009 (ip), vehicle: Klucel (hydroxypropylcellulose) (HPC)) 105 % of control; under setting [10], 94 % of control; under setting [11], 94 % of control; under setting [12], 115 % of control; under setting [3], 86 % of control; under setting [5], 95 % of control.
For `C=CC(C)(C)C12CC3C(=O)N/C(=C\c4cnc[nH]4)C(=O)N3C1Nc1ccccc12` (stereo not given), the T/C by setting is: under setting [12], 94 % of control; under setting [1], 94 % of control; under setting [3], 92 % of control.
Take `CCOC(=O)CCc1nc(C(=O)OCC)c(C)c2nnnn12`: the T/C reads like this: under setting [13], 99 % of control; under setting [14], 108 % of control; under setting [15], 95 % of control.
Consider `COC(=O)C1(C)CCCC2(C)C1CCC13OCC(CC21)C(=C(C)C)C3OC(C)=O` (stereo not given), for which the T/C under setting [8] was 100 % of control; the T/C under setting [9] is 100 % of control; the T/C (dose: 400.0 mg/kg/injection, schedule: Q01DX009 (ip), vehicle: saline with Tween-80) is 90 % of control.
As for `S=c1[nH]nc2n1NC(c1ccoc1)=NN2`, the T/C is, setting by setting: (dose: 25.0 mg/kg/injection, schedule: Q04DX003 (ip), vehicle: saline with Tween-80) 122 % of control; under setting [16], 100 % of control; under setting [13], 113 % of control.
In the case of `CCOC(=O)C1=C(O)c2c(sc(C)c2C)N(S(=O)(=O)c2ccc(C)cc2)CC1`, the T/C is 90 % of control (dose: 25.0 mg/kg/injection, schedule: Q01DX009 (ip), vehicle: saline with Tween-80); 113 % of control under setting [7]; 91 % of control under setting [16]; 104 % of control under setting [8]; 91 % of control under setting [13]; 109 % of control under setting [9]. For the same compound, the T/C by setting is: under setting [14], 91 % of control; under setting [15], 100 % of control.
Consider `CC(=O)Nc1ccc(OCCOC(=O)Nc2ccc(C)cc2[N+](=O)[O-])cc1`, for which the T/C is, setting by setting: under setting [10], 105 % of control; under setting [11], 93 % of control.
Consider `CCCCCCCCNC12CC3CC(CC(C3)C1)C2`, for which the T/C (dose: 6.25 mg/kg/injection, schedule: Q04DX003 (ip), vehicle: saline) was 104 % of control; the T/C under setting [17] is 108 % of control; the T/C under setting [18] is 116 % of control; the T/C under setting [19] was 100 % of control; the T/C under setting [20] was 108 % of control.
Regarding `CN(C)c1ccc(/C=C/c2ccc3ccccc3n2)c(F)c1`, the T/C under setting [2] is 90 % of control, the T/C under setting [4] was 95 % of control and the T/C under setting [6] was 90 % of control.
Regarding `O=C(O)C1C(C(=O)O)C2(Cl)C(Cl)=C(Cl)C1(Cl)C2(Cl)Cl.[Cu+2]` (stereo not given), the T/C was 100 % of control (dose: 12.5 mg/kg/injection, schedule: Q01DX009 (ip), vehicle: saline sonified) and 110 % of control (dose: 25.0 mg/kg/injection, schedule: Q01DX009 (ip), vehicle: saline sonified).
As to `COc1ccc2c(c1OC)C(=O)NC2=O`, the T/C (dose: 50.0 mg/kg/injection, schedule: Q01DX008 (ip), vehicle: Klucel (hydroxypropylcellulose) (HPC)) is 108 % of control; the T/C (dose: 50.0 mg/kg/injection, schedule: Q04DX003 (ip), vehicle: Klucel (hydroxypropylcellulose) (HPC)) was 100 % of control; the T/C (dose: 100.0 mg/kg/injection, schedule: Q01DX008 (ip), vehicle: Klucel (hydroxypropylcellulose) (HPC)) is 88 % of control; the T/C under setting [2] is 100 % of control; the T/C under setting [4] is 90 % of control.
Take `CC(=O)N/N=C(/C)C(=O)O`: the T/C reads like this: (dose: 12.5 mg/kg/injection, schedule: Q01DX009 (ip), vehicle: water) 93 % of control and 102 % of control and 114 % of control; (dose: 12.5 mg/kg/injection, schedule: Q04DX003 (ip), vehicle: water) 95 % of control; (dose: 25.0 mg/kg/injection, schedule: Q04DX003 (ip), vehicle: water) 100 % of control; (dose: 50.0 mg/kg/injection, schedule: Q04DX003 (ip), vehicle: water) 100 % of control.
For `Cc1ccnc(NC2=CC(=O)C(=O)c3ccccc32)c1`, the T/C by setting is: under setting [21], 100 % of control; (dose: 75.0 mg/kg/injection, schedule: Q01DX009 (ip), vehicle: saline) 118 % of control; (dose: 112.5 mg/kg/injection, schedule: Q01DX009 (ip), vehicle: saline) 118 % of control.
As for `CCN(CC)C(=O)C1=NNc2ccc(Cl)cc2C(=O)N1C`, the T/C was 100 % of control under setting [13], 109 % of control under setting [14] and 97 % of control under setting [15].
Consider `COC(=O)C(Cc1ccc(N(CCCl)CCCl)cc1)N=NNc1nc[nH]c1C(N)=O` (stereo not given), for which the T/C by setting is: (dose: 14.0 mg/kg/injection, schedule: Q04DX003 (ip), vehicle: saline) 154 % of control; (dose: 33.0 mg/kg/injection, schedule: Q04DX003 (ip), vehicle: saline) 195 % of control; under setting [19], 213 % of control.
With `CC1SC(c2ccccc2)N(c2nccs2)C1=O` (stereo not given), the T/C is 103 % of control under setting [7], 89 % of control under setting [8] and 99 % of control under setting [9].
Turning to `CC(C)(C)N1CCOCC1`, the T/C under setting [17] is 109 % of control; the T/C (dose: 25.0 mg/kg/injection, schedule: Q01DX009 (ip), vehicle: saline) was 95 % of control; the T/C under setting [18] is 95 % of control; the T/C under setting [21] is 86 % of control; the T/C under setting [19] is 90 % of control; the T/C (dose: 75.0 mg/kg/injection, schedule: Q04DX003 (ip), vehicle: saline) was 105 % of control. Moreover, under “dose: 115.0 mg/kg/injection, schedule: Q04DX003 (ip), vehicle: saline”, the T/C is 120 % of control.
Consider `Cc1c2oc3c(C)ccc(C(=O)NCCCc4ccccc4)c3nc-2c(C(=O)NCCCc2ccccc2)c(N)c1=O`, for which the T/C reads like this: (dose: 100.0 mg/kg/injection, schedule: Q04DX002 (ip), vehicle: DMSO) 100 % of control; (dose: 200.0 mg/kg/injection, schedule: Q04DX002 (ip), vehicle: DMSO) 90 % of control.
Take `C#CC(C)OCC1CO1` (stereo not given): the T/C was 91 % of control under setting [21]; 108 % of control under setting [19]; 95 % of control (dose: 100.0 mg/kg/injection, schedule: Q01DX009 (ip), vehicle: saline); 91 % of control under setting [20]; 108 % of control (dose: 200.0 mg/kg/injection, schedule: Q04DX003 (ip), vehicle: saline).

The values above are taken from PubChem BioAssay AID328 (DTP/NCI, 2004).
